# Test results: patent US9661848B2, “Substituted 4-cyan-3-(pyridyl)-4-phenylbutanoates, method for the production thereof and uses as herbicides and plant growth regulators” (BAYER CROPSCIENCE AG, priority 2012, dated 2017)
# How the values were obtained:
# Alopecurus myosuroides = assay: Herbicidal post-emergence action; assay type: in vivo; details: post-emergence method; 0.32 kg of active substance per hectare
# Experimental: (§1) Seeds of monocotyledonous and dicotyledonous weeds and crop plants were placed in sandy loam in wood-fibre pots, covered with soil and cultivated in a greenhouse under good growth conditions. 2 to 3 weeks after sowing, the test plants were treated at the one-leaf stage, where the compounds (I) according to the invention, formulated in the form of wettable powders (WP), were applied by spraying as aqueous suspension or emulsion at a water application rate of 600 l/ha (converted) with the addition of 0.2% of wetting agent to the green parts of the plants. After the test plants had been kept in the greenhouse under optimum growth conditions for about 3 weeks, the activity of the preparations was rated visually in comparison to untreated controls in per cent (%). For example, 100% activity=the plants have died, 50% herbicidal activity or damage=the plants have been reduced by 50% or the plant mass has been reduced by 50%, 0% activity=like control plants.
# Avena fatua = assay: Herbicidal post-emergence action; assay type: in vivo; details: post-emergence method; 0.32 kg of active substance per hectare
# Experimental: as §1
compound,measurement,setting,value
COC(=O)C[C@@H](c1cncc(F)c1)[C@H](C#N)c1cccc(F)c1 [erythro-2-Ibb732],activity against Alopecurus myosuroides,Alopecurus myosuroides,90-100%
same,activity against Avena fatua,Avena fatua,90-100%
